≈ marks a conversion by molar mass, not a printed value. Like-named read-outs stand apart in the source and are kept apart here.
What was measured:
C. glabrata = assay: MIC; format: cell-based
human erythrocytes = assay: MHC hemolysis assay; format: cell-based; conditions: hemolysis, human erythrocytes, 37° C. 2 hours
Description: MHC (FIG. 21B): The protocol for the hemolysis assay was adapted from the report of Paquet and coworkers (Chem. Eur. J. 2008, 14, 2465-2481). Whole human blood (sodium heparin) was purchased from Bioreclamation LLC (Westbury, N.Y.) and stored at 4° C. and used within two days of receipt. To a 2.0 mL eppendorf tube, 1 mL of whole human blood was added and centrifuged at 10,000 g for 2 minutes. The supernatant was removed and the erythrocyte pellet was washed with 1 mL of sterile saline and centrifuged at 10,000 g for 2 minutes. The saline wash was repeated for a total of three washes. The erythrocyte pellet was suspended in 1 mL of RBC buffer (10 mM NaH2PO4, 150 mM NaCl, 1 mM MgCl2, pH 7.4) to form the erythrocyte stock suspension.
Compounds were prepared as >15 mM stock solutions in DMSO and serially diluted to the following concentrations with DMSO: 7689, 5126, 2563, 2050, 1538, 1025, 769, 513, 384, 256, 205, 154, 103, 77, 51, 26 μM. To a 0.2 mL PCR tube, 24 μL of RBC buffer and 1 μL of compound stock solution were added, which gave final concentrations of […]. Positive and negative controls were prepared by adding 1 μL of DMSO to MilliQ water or RBC buffer, respectively to 0.2 mL PCR tube. To each PCR tube, 0.63 μL of the erythrocyte stock suspension was added and mixed by inversion. The samples were incubated at 37° C. for 2 hours. The samples were mixed by inversion and centrifuged at 10,000 g for 2 minutes. 15 μL of the supernatant from each sample was added to a 384-well place. Absorbances were read at 540 nm using a Biotek H1 Synergy Hybrid Reader (Wanooski, Vt.). Experiments were performed in triplicate and the reported MHC represents an average of three experiments.

C. krusei = assay: MIC; format: cell-based
A. fumigatus 1100 = assay: MIC; format: cell-based
C. albicans = assay: MIC; format: cell-based
[1] = UV-Vis sterol binding assay
Description: However, an alternative method was developed for reproducible formation of homogenous AmB and C2′epiAmB sterol sponge aggregates in vitro. Using these preparations, a quantitative UV-Vis and Principle Component (PCA) based assay for determining the apparent KDs for the binding of AmB and C2′epiAmB to ergosterol and cholesterol (FIGS. 5A-5D) was developed.
UV-Vis Binding Assay (FIG. 21A): The protocol for the sterol binding assay (UV-Vis) was developed in our lab. Compounds were dissolved in DMSO at a final concentration of 1 mM. Sterol were first dissolved in CHCl3 (>200 mM) and then diluted to 1 mM concentration with DMSO. To synthesize the complex 1 ul of compound solution was taken in a clean eppendorf tube (2 ml) and sterol solution (volume depends on the stoichiometry) was added to it and the volume was made up to 20 ul with DMSO. 0.98 ml of PBS buffer was added to the Eppendorf tube and mixed properly. The absorbance of the solution was measured after 30 mins of incubation.

[2] = test system: C. albicans SN250, C. albicans, C. krusei, C. glabrata, C. tropicalis, A. fumigatus 91, 1163, 1100; assay: Average MIC over the tested strains; format: cell-based; conditions: for MIC: average over the 8 listed strains; for Average MIC for AmB analogue: value of the corresponding AmB analogue, not of the C2’epi compound
A. fumigatus 91 = assay: MIC; format: cell-based
C. tropicalis = assay: MIC; format: cell-based
C. albicans SN250 = assay: MIC; format: cell-based, Candida albicans
A. fumigatus 1163 = assay: MIC; format: cell-based
CYP2D6 = CYP2D6 (Homo sapiens, UniProt P10635); assay: CYP Inhibition; conditions: human
Description: (§1) The working solutions of the test compounds and the standard inhibitors were prepared in DMSO (100× final concentration). 20 ul of substrate solution (5 in 1 cocktail) was added to the wells followed by 2 ul test compound solution was added. 158 ul of human liver microsome (HLM) was added to all the wells of the incubated plate and warmed to 37° C. for 10 mins. 20 ul of NADPH cofactor solution was then added to all the wells of incubated plate and incubated at 37° C. for 10 mins. At the time point the reaction was quenched by adding 400 uL of cold stop solution. The samples were centrifuged at 4000 rpm for 20 mins to precipitate protein. 100 ul supernatant was diluted with 100 ul of ultra pure water and analyzed using LCMS.

CYP2C9 = CYP2C9 (Homo sapiens, UniProt P11712); assay: CYP Inhibition; conditions: human
Description: as §1

Plasma Stability = format: in vitro ADME
Description: Plasma Stability: Procedure: […] Plasma was warmed to 37° C. prior to the experiment and centrifuged for 5 mins at 4000 rpm. […] Each time point was monitored in triplicate (0, 10, 30, 60 and 120 min). 4 uL/well aliquot of the working solution was mixed to the blank plasma and incubated at 37° C. AT each time point samples were quenched with ACN stop solution containing 200 ng/ml Tolbutamide & 200 ng/ml Labetalol at 1:3 ratio and mix well on shaker for 10 min then centrifuge at 4000 rpm for 15 min. A 100 ul aliquot of supernatant was mixed with 100 μL of ultra-pure and submitted for LC-MS/MS analysis.

[3] = Liver Microsome stability (In Vitro Metabolism); format: in vitro ADME; conditions: for Remaining (T = NCF60 min): no cofactor 60 min
Description: Working Compound solution: 10 uM in 50 mM potassium phosphate buffer with 9% MeOH and 1% DMSO
Microsome solution: working concentration 0.625 mg/ml
Stopping solution: Cold ACN with 200 ng/ml Tolbutamide and 200 ng/ml Labetalol (4° C.)
Procedure: In the well plates (T5, T10, T20, T30, T60, NCF60 (no cofactor 60)) 10 uL of the compound/control working solution was added (except T0 and matric blank) followed by microsome solution (80 uL) and the mixture was incubated at 37 C for about 10 mins. A solution of potassium phosphate (10 ul of 50 mM) was added to NCF60 well, incubated at 37 C and time counting started. After prewarming 10 ul of NADPH regenerating solution was added to each plate to start the reaction. At different time point 300 uL/well of stopping solution to terminate the reaction. The sampling plates were shaken for 10 mins and the centrifuged for 20 mins at 4000 rpm. The supernatant was half diluted with ultra pure water and the analyzed using LCMS.

[4] = test system: human red blood cells and primary hREC; assay: Toxicity to human cells; format: cell-based
Excerpt: (§2) This key discovery opened a path to the rational development of a non-toxic AmB variant. To probe its predicted role in sterol binding, the hydroxyl group was synthetically deleted at the C2′ position on the mycosamine appendage. […] Consistent with the sterol sponge model, this derivative retained good activity against yeast but, most importantly, was nontoxic to human red blood cells and primary (hREC) (FIG. 2B).
(§3) A practical 11-step synthesis of C2′epiAmB using a frontier site-selective acylation method was developed (FIG. 4). Wilcock, B. C. et al., Nat Chem 2012, 4 (12), 996-1003; Uno, B. E. A synthesis enabled understanding of Amphotericin B leading to derivatives with improved therapeutic indices. University of Illinois at Urbana-Champaign, 2014. The sterol binding and cell killing activities was then determined.

[5] = isothermal titration calorimetry (ITC) sterol binding
Excerpt: as §2, §3

Chain of CYP2D6 (P10635 whole entry): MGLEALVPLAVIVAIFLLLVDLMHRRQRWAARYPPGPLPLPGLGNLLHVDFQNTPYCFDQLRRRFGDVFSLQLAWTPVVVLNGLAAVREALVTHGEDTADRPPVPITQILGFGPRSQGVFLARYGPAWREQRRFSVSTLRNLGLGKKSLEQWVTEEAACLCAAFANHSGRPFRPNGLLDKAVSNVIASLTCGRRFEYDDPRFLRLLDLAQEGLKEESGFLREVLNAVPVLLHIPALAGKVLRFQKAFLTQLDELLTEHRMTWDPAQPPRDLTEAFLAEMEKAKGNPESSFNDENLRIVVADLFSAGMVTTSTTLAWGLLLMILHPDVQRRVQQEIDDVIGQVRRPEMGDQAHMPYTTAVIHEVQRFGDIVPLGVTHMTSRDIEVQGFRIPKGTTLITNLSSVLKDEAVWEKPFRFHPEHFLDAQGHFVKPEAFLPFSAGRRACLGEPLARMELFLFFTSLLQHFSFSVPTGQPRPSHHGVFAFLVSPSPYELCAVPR
Chain of CYP2C9 (P11712 whole entry): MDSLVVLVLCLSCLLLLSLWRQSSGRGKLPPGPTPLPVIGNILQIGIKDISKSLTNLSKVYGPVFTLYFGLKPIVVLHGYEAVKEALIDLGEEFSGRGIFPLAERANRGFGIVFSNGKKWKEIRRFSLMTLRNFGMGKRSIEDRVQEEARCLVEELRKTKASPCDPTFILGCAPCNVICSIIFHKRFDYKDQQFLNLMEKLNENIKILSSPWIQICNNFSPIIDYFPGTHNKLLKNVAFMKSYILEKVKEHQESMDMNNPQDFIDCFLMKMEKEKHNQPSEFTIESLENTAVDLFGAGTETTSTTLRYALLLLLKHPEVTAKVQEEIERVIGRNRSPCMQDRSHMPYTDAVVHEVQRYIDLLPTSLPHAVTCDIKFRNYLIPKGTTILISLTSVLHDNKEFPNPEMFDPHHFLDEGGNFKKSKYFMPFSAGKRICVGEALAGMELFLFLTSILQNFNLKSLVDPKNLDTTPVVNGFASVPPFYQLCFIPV

## CNC(=O)C1C(O)CC2(O)CC(O)CC(O)C(O)CCC(O)CC(O)CC(=O)OC(C)C(C)C(O)C(C)C=CC=CC=CC=CC=CC=CC=CC(OC3OC(C)C(O)C(N)C3O)CC1O2 (stereo not drawn) [BB]
C. glabrata
  MIC C. glabrata: 0.375 µM (≈ 0.351 µg/mL)
Human erythrocytes
  MHC: >500 µM
C. krusei
  MIC C. krusei: 2 µM (≈ 1.87 µg/mL)
A. fumigatus 1100
  MIC A. fumigatus 1100: 2 µM (≈ 1.87 µg/mL)
C. albicans
  MIC C. albicans: 0.5 µM (≈ 0.469 µg/mL)
[1]
  Cholesterol Binding: No
[2]
  MIC: 1.734 µM
  Average MIC for AmB analogue: 0.336 μM
A. fumigatus 91
  MIC A. fumigatus 91: 4 µM (≈ 3.75 µg/mL)
C. tropicalis
  MIC C. tropicalis: 0.5 µM (≈ 0.469 µg/mL)
C. albicans SN250
  MIC C. albicans SN250: 0.5 µM (≈ 0.469 µg/mL)
A. fumigatus 1163
  MIC A. fumigatus 1163: 4 µM (≈ 3.75 µg/mL)

## CC1C=CC=CC=CC=CC=CC=CC=CC(OC2OC(C)C(O)C(N)C2O)CC2OC(O)(CC(O)CC(O)C(O)CCC(O)CC(O)CC(=O)OC(C)C(C)C1O)CC(O)C2C(=O)NCCN (stereo not drawn) [BC]
C. glabrata
  MIC C. glabrata: 0.5 µM (≈ 0.483 µg/mL)
Human erythrocytes
  MHC: 250 µM
C. krusei
  MIC C. krusei: 4 µM (≈ 3.86 µg/mL)
A. fumigatus 1100
  MIC A. fumigatus 1100: 2 µM (≈ 1.93 µg/mL)
C. albicans
  MIC C. albicans: 0.5 µM (≈ 0.483 µg/mL)
[1]
  Cholesterol Binding: Yes?
[2]
  MIC: 1.750 µM
  Average MIC for AmB analogue: 0.563 μM
A. fumigatus 91
  MIC A. fumigatus 91: 4 µM (≈ 3.86 µg/mL)
C. tropicalis
  MIC C. tropicalis: 0.5 µM (≈ 0.483 µg/mL)
C. albicans SN250
  MIC C. albicans SN250: 0.5 µM (≈ 0.483 µg/mL)
A. fumigatus 1163
  MIC A. fumigatus 1163: 2 µM (≈ 1.93 µg/mL)

## C=C[C@H]1C[N@@]2CC[C@H]1C[C@@H]2[C@@H](O)c1ccnc2ccc(OC)cc12 [Quinidine, reference compound]
CYP2D6
  inhibition at 10 min, 3 µM: 95.3%

## Nc1ccc(S(=O)(=O)Nc2ccnn2-c2ccccc2)cc1 [Sulfaphenazole, reference compound]
CYP2C9
  inhibition at 10 min, 3 µM: 69.7%

## CC1C=CC=CC=CC=CC=CC=CC=CC(OC2OC(C)C(O)C(N)C2O)CC2OC(O)(CC(O)CC(O)C(O)CCC(O)CC(O)CC(=O)OC(C)C(C)C1O)CC(O)C2C(=O)NCCO (stereo not drawn) [Compound AA]
C. glabrata
  MIC C. glabrata: 0.145 µM (≈ 0.14 µg/mL)
C. glabrata; listed as AmBHEA
  MIC C. glabrata: 0.145 µM (≈ 0.14 µg/mL)
C. krusei
  MIC C. krusei: 0.45 µM (≈ 0.435 µg/mL)
C. krusei; listed as AmBHEA
  MIC C. krusei: 0.45 µM (≈ 0.435 µg/mL)
Plasma Stability; Human Plasma
  % Remaining at 120 min: 119%
  Half Life: >4.82 h
Plasma Stability; Rat Plasma
  % Remaining at 120 min: 108%
  Half Life: >4.82 h
A. fumigatus 1100
  MIC A. fumigatus 1100: 0.7 µM (≈ 0.677 µg/mL)
A. fumigatus 1100; listed as AmBHEA
  MIC A. fumigatus 1100: 0.7 µM (≈ 0.677 µg/mL)
[3]; Dog liver microsomes
  CL: <9.6 µL/min/mg
  CLint: <14 mL/min/kg
  Remaining (T = 60 min): 88.5%
  T1/2: >2.42 h
  Remaining (T = NCF60 min): 97.4%
[3]; Human liver microsomes
  CL: <9.6 µL/min/mg
  CLint: <8.6 mL/min/kg
  Remaining (T = 60 min): 111%
  T1/2: >2.42 h
  Remaining (T = NCF60 min): 142%
[3]; Monkey liver microsomes
  CL: <9.6 µL/min/mg
  CLint: <13 mL/min/kg
  Remaining (T = 60 min): 113%
  T1/2: >2.42 h
  Remaining (T = NCF60 min): 103%
[3]; Mouse liver microsomes
  CL: <9.6 µL/min/mg
  CLint: <38 mL/min/kg
  Remaining (T = 60 min): 118%
  T1/2: >2.42 h
  Remaining (T = NCF60 min): 140%
[3]; Rat liver microsomes
  CL: <9.6 µL/min/mg
  CLint: <17 mL/min/kg
  Remaining (T = 60 min): 130%
  T1/2: >2.42 h
  Remaining (T = NCF60 min): 113%
C. albicans
  MIC C. albicans: 0.225 µM (≈ 0.218 µg/mL)
C. albicans; listed as AmBHEA
  MIC C. albicans: 0.225 µM (≈ 0.218 µg/mL)
[2]
  MIC: 0.44 µM
[2]; listed as AmBHEA
  MIC: 0.44 µM
A. fumigatus 91
  MIC A. fumigatus 91: 1 µM (≈ 0.967 µg/mL)
A. fumigatus 91; listed as AmBHEA
  MIC A. fumigatus 91: 1 µM (≈ 0.967 µg/mL)
C. tropicalis
  MIC C. tropicalis: 0.225 µM (≈ 0.218 µg/mL)
C. tropicalis; listed as AmBHEA
  MIC C. tropicalis: 0.225 µM (≈ 0.218 µg/mL)
C. albicans SN250
  MIC C. albicans SN250: 0.25 µM (≈ 0.242 µg/mL)
A. fumigatus 1163
  MIC A. fumigatus 1163: 0.525 µM (≈ 0.508 µg/mL)
A. fumigatus 1163; listed as AmBHEA
  MIC A. fumigatus 1163: 0.525 µM (≈ 0.508 µg/mL)

## CC1C=CC=CC=CC=CC=CC=CC=CC(OC2CC(N)C(O)C(C)O2)CC2OC(O)(CC(O)CC(O)C(O)CCC(O)CC(O)CC(=O)OC(C)C(C)C1O)CC(O)C2C(=O)O (stereo not drawn) [C2′deOAmB, reference compound]
[4]
  Toxicity to human cells: nontoxic
[5]
  Ergosterol binding by ITC: bind ergosterol
[5]; within the detection limits of ITC
  Cholesterol binding by ITC: not cholesterol
